Measurements taken from patent US4965280A, “Antifungal carbinols” (E. I. Du Pont de Nemours and Company, priority 1989, dated 1990).

Experiments:
[1] = tested on: G4646 CORN; assay: Test D Corn and Sorghum Herbicide Test; format: in vivo, Zea mays
[2] = tested on: LARGE CRABGRASS; assay: Test D; format: in vivo, Digitaria sanguinalis
[3] = tested on: BARNYARDGRASS; assay: Test D; format: in vivo, Echinochloa crus-galli
Description: (§1) The Corn and Sorghum Herbicide Test included the following species in both the preemergence and postemergence evaluations:
(§2) Postemergence plantings were grown in Sassafras sandy loam soil. Corn and soybeans were grown in separate 25 cm diameter containers. Sorghum and the seven grass weed species were grown in two 18 cm diameter containers, 4 species per container. The seven broadleaf weed species were also grown in two 18 cm diameter containers, 4 species in one container, 3 species in the second container. One additional planting of corn in an 18 cm diameter container was made. The soil surface of this additional container of corn was covered with the absorbent, perlite, before spray treatment so that test chemicals would enter the plant only via the foliage. The plants were grown 10-21 days, dependent upon the species and then sprayed postemergence with the test chemicals dissolved in a nonpytotoxic solvent.
(§3) Preemergence plantings were grown in fertilized Tama silt loam soil. These plantings are identical to those described in the postemergence section, with the exception of the corn planting having perlite covering the soil surface. These plantings were made the day of or the day before spraying the test chemicals dissolved in a nonphytotoxic solvent.
(§4) Treated plants and controls were maintained in the greenhouse for 2 to 4 weeks. Visual planting response ratings were made on a percentage scale of 0 to 100 in comparison with a control where 0=no injury, and 100=death.

[4] = tested on: JOHNSONGRASS; assay: Test D; format: in vivo, Sorghum halepense
[5] = tested on: G522 SORGHUM; assay: Test D; format: in vivo, Sorghum bicolor
[6] = tested on: COCKLEBUR; assay: Test D; format: in vivo, Xanthium pensylvanicum
[7] = tested on: LADY SMARTWEED; assay: Test D; format: in vivo, Polygonum persicaris
Description: as §1, §2, §3, §4

[8] = tested on: IVY MORNINGLORY; assay: Test D; format: in vivo, Ipomoea hederacea
[9] = tested on: JIMSONWEED; assay: Test D; format: in vivo, Datura stramonium
[10] = tested on: PERLITE CORN; assay: Test D, soil covered with perlite; format: in vivo, Zea mays
Description: as §1, §2, §4

`C=C(c1ccccc1)C(O)(Cn1cncn1)c1ccc(Cl)cc1Cl` (stereo not shown) [Example 50, 2-(2,4-Dichlorophenyl)-3-phenyl-1-(1H-1,2,4-triazol-1-yl)-3-buten-2-ol] showed a plant response ([1]; POSTEMERGENCE 0250 GM/HA) of 0%, a plant response ([1]; POSTEMERGENCE 0500 GM/HA) of 20% and a plant response ([1]; PREEMERGENCE 0064 GM/HA) of 0%. It also gave a plant response ([1]; PREEMERGENCE 0125 GM/HA) of 0%, a plant response ([1]; PREEMERGENCE 0250 GM/HA) of 0% and a plant response ([1]; PREEMERGENCE 0500 GM/HA) of 0%. It also gave a plant response ([2]; POSTEMERGENCE 0250 GM/HA) of 70%, a plant response ([2]; POSTEMERGENCE 0500 GM/HA) of 100% and a plant response ([2]; PREEMERGENCE 0064 GM/HA) of 40%. For the same molecule, the plant response ([2]; PREEMERGENCE 0125 GM/HA) was 75%, the plant response ([2]; PREEMERGENCE 0250 GM/HA) was 100% and the plant response ([2]; PREEMERGENCE 0500 GM/HA) was 100%. For the same molecule, the plant response ([3]; POSTEMERGENCE 0250 GM/HA) was 0%, the plant response ([3]; POSTEMERGENCE 0500 GM/HA) was 0% and the plant response ([3]; PREEMERGENCE 0064 GM/HA) was 0%. For the same molecule, the plant response ([3]; PREEMERGENCE 0125 GM/HA) was 0%, the plant response ([3]; PREEMERGENCE 0250 GM/HA) was 20% and the plant response ([3]; PREEMERGENCE 0500 GM/HA) was 45%. The plant response ([4]; POSTEMERGENCE 0250 GM/HA) was 20%, the plant response ([4]; POSTEMERGENCE 0500 GM/HA) was 40% and the plant response ([4]; PREEMERGENCE 0064 GM/HA) was 35%. The plant response ([4]; PREEMERGENCE 0125 GM/HA) was 70%, the plant response ([4]; PREEMERGENCE 0250 GM/HA) was 90% and the plant response ([4]; PREEMERGENCE 0500 GM/HA) was 95%. The plant response ([5]; POSTEMERGENCE 0250 GM/HA) was 0%, the plant response ([5]; POSTEMERGENCE 0500 GM/HA) was 0% and the plant response ([5]; PREEMERGENCE 0064 GM/HA) was 0%. The plant response ([5]; PREEMERGENCE 0125 GM/HA) was 0%, the plant response ([5]; PREEMERGENCE 0250 GM/HA) was 0% and the plant response ([5]; PREEMERGENCE 0500 GM/HA) was 0%. The plant response ([6]; POSTEMERGENCE 0250 GM/HA) was 25%, the plant response ([6]; POSTEMERGENCE 0500 GM/HA) was 40% and the plant response ([6]; PREEMERGENCE 0064 GM/HA) was 0%. It also gave a plant response ([6]; PREEMERGENCE 0125 GM/HA) of 0%, a plant response ([6]; PREEMERGENCE 0250 GM/HA) of 0% and a plant response ([6]; PREEMERGENCE 0500 GM/HA) of 25%. The plant response ([7]; POSTEMERGENCE 0250 GM/HA) was 30%, the plant response ([7]; POSTEMERGENCE 0500 GM/HA) was 40% and the plant response ([7]; PREEMERGENCE 0064 GM/HA) was 0%. For the same molecule, the plant response ([7]; PREEMERGENCE 0125 GM/HA) was 0%, the plant response ([7]; PREEMERGENCE 0250 GM/HA) was 20% and the plant response ([7]; PREEMERGENCE 0500 GM/HA) was 40%. It also gave a plant response ([8]; POSTEMERGENCE 0250 GM/HA) of 20%, a plant response ([8]; POSTEMERGENCE 0500 GM/HA) of 60% and a plant response ([8]; PREEMERGENCE 0064 GM/HA) of 0%. For the same molecule, the plant response ([8]; PREEMERGENCE 0125 GM/HA) was 30%, the plant response ([8]; PREEMERGENCE 0250 GM/HA) was 40% and the plant response ([8]; PREEMERGENCE 0500 GM/HA) was 65%. It also gave a plant response ([9]; POSTEMERGENCE 0250 GM/HA) of 20%, a plant response ([9]; POSTEMERGENCE 0500 GM/HA) of 45% and a plant response ([9]; PREEMERGENCE 0064 GM/HA) of 0%. For the same molecule, the plant response ([9]; PREEMERGENCE 0125 GM/HA) was 25%, the plant response ([9]; PREEMERGENCE 0250 GM/HA) was 50% and the plant response ([9]; PREEMERGENCE 0500 GM/HA) was 70%. For the same molecule, the plant response ([10]; POSTEMERGENCE 0250 GM/HA) was 0% and the plant response ([10]; POSTEMERGENCE 0500 GM/HA) was 0%.

`C=C(c1ccccc1Cl)C(O)(Cn1cncn1)c1ccc(F)cc1F` (stereo not shown) [Example 35] showed a plant response ([1]; POSTEMERGENCE 0250 GM/HA) of 0%, a plant response ([1]; POSTEMERGENCE 0500 GM/HA) of 0% and a plant response ([1]; PREEMERGENCE 0064 GM/HA) of 0%. It also gave a plant response ([1]; PREEMERGENCE 0125 GM/HA) of 0%, a plant response ([1]; PREEMERGENCE 0250 GM/HA) of 0% and a plant response ([1]; PREEMERGENCE 0500 GM/HA) of 0%. It also gave a plant response ([2]; POSTEMERGENCE 0250 GM/HA) of 30%, a plant response ([2]; POSTEMERGENCE 0500 GM/HA) of 30% and a plant response ([2]; PREEMERGENCE 0064 GM/HA) of 50%. For the same molecule, the plant response ([2]; PREEMERGENCE 0125 GM/HA) was 70%, the plant response ([2]; PREEMERGENCE 0250 GM/HA) was 95% and the plant response ([2]; PREEMERGENCE 0500 GM/HA) was 100%. The plant response ([3]; POSTEMERGENCE 0250 GM/HA) was 40%, the plant response ([3]; POSTEMERGENCE 0500 GM/HA) was 60% and the plant response ([3]; PREEMERGENCE 0064 GM/HA) was 0%. For the same molecule, the plant response ([3]; PREEMERGENCE 0125 GM/HA) was 60%, the plant response ([3]; PREEMERGENCE 0250 GM/HA) was 40% and the plant response ([3]; PREEMERGENCE 0500 GM/HA) was 100%. For the same molecule, the plant response ([4]; POSTEMERGENCE 0250 GM/HA) was 0%, the plant response ([4]; POSTEMERGENCE 0500 GM/HA) was 50% and the plant response ([4]; PREEMERGENCE 0064 GM/HA) was 30%. For the same molecule, the plant response ([4]; PREEMERGENCE 0125 GM/HA) was 30%, the plant response ([4]; PREEMERGENCE 0250 GM/HA) was 100% and the plant response ([4]; PREEMERGENCE 0500 GM/HA) was 100%. For the same molecule, the plant response ([5]; POSTEMERGENCE 0250 GM/HA) was 0%, the plant response ([5]; POSTEMERGENCE 0500 GM/HA) was 50% and the plant response ([5]; PREEMERGENCE 0064 GM/HA) was 0%. The plant response ([5]; PREEMERGENCE 0125 GM/HA) was 0%, the plant response ([5]; PREEMERGENCE 0250 GM/HA) was 0% and the plant response ([5]; PREEMERGENCE 0500 GM/HA) was 0%. The plant response ([6]; POSTEMERGENCE 0250 GM/HA) was 0%, the plant response ([6]; POSTEMERGENCE 0500 GM/HA) was 30% and the plant response ([6]; PREEMERGENCE 0064 GM/HA) was 0%. It also gave a plant response ([6]; PREEMERGENCE 0125 GM/HA) of 0%, a plant response ([6]; PREEMERGENCE 0250 GM/HA) of 0% and a plant response ([6]; PREEMERGENCE 0500 GM/HA) of 20%. The plant response ([7]; POSTEMERGENCE 0250 GM/HA) was 50%, the plant response ([7]; POSTEMERGENCE 0500 GM/HA) was 50% and the plant response ([7]; PREEMERGENCE 0064 GM/HA) was 0%. The plant response ([7]; PREEMERGENCE 0125 GM/HA) was 30%, the plant response ([7]; PREEMERGENCE 0250 GM/HA) was 50% and the plant response ([7]; PREEMERGENCE 0500 GM/HA) was 100%. It also gave a plant response ([8]; POSTEMERGENCE 0250 GM/HA) of 20%, a plant response ([8]; POSTEMERGENCE 0500 GM/HA) of 30% and a plant response ([8]; PREEMERGENCE 0064 GM/HA) of 0%. It also gave a plant response ([8]; PREEMERGENCE 0125 GM/HA) of 0%, a plant response ([8]; PREEMERGENCE 0250 GM/HA) of 0% and a plant response ([8]; PREEMERGENCE 0500 GM/HA) of 30%. The plant response ([9]; POSTEMERGENCE 0250 GM/HA) was 20%, the plant response ([9]; POSTEMERGENCE 0500 GM/HA) was 20% and the plant response ([9]; PREEMERGENCE 0064 GM/HA) was 0%. For the same molecule, the plant response ([9]; PREEMERGENCE 0125 GM/HA) was 0%, the plant response ([9]; PREEMERGENCE 0250 GM/HA) was 80% and the plant response ([9]; PREEMERGENCE 0500 GM/HA) was 30%. For the same molecule, the plant response ([10]; POSTEMERGENCE 0250 GM/HA) was 0% and the plant response ([10]; POSTEMERGENCE 0500 GM/HA) was 0%.
